Patent US20240000950A1, “THERAPEUTIC CURE-PRO COMPOUNDS FOR TARGETED DEGRADATION OF BET DOMAIN PROTEINS, AND METHODS OF MAKING AND USING THEM” (CORNELL UNIVERSITY, priority 2020, published 2024)
Entries after “also recorded” stand apart in the source; their conditions may differ.

How the values were obtained:
Format in all cases: cell-based
[1] = target: T1, BRD4 (Homo sapiens, UniProt O60885); experiment: CURE-PRO-mediated BRD4 degradation in HeLa cells, Western blot; design: endogenous in cells; host or cells: HeLa; details: 24 h
Procedure: (§1) All cell lines were purchased from ATCC or DSMZ and grown at 37° C. with 5% C02. Human HeLa cells were cultured in complete growth medium (Dulbecco's modified Eagle's medium (DMEM) supplemented with 10% FBS); MCF7 cells were cultured in complete growth medium (Dulbecco's modified Eagle's medium (DMEM) supplemented with 10% FBS and 0.01 mg/ml human recombinant insulin (Sigma Aldrich); Namalwa and MOLM-13 cells were cultured in complete growth medium (RPMI 1640 medium supplemented with 10% FBS); MV-4-11 were cultured in complete growth medium (Iscove's Modified Dulbecco's medium, supplemented with 10% FBS); HCT116 cells were cultured in complete growth medium (McCoy's 5a Medium supplemented with 10% FBS). For cellular degradation of BRD4 studies, cells were seeded in a 12-well plate at 70-80% confluency, allowed to attach overnight, and incubated with the indicated compounds for the indicated time. When indicated, a 15-minute pretreatment with 10 μM pomalidomide, 10 μM VHL298, 10 μM Nutlin3a, 1 μM MG-132 or 1 μM Carfilzomib was performed before the addition of CURE-PROs. For washout studies, after CURE-PRO treatment, media was aspirated and incubated with complete medium for the indicated time before lysis.
Anti-BRD4 (13440, 1:1,000 dilution for Western Blot and 1:25 dilution for ProteinSimple); Anti-BRD2 (5848 1:1,000 dilution for Western Blot and 1:25 dilution for ProteinSimple); β-Actin (3700, 1:2,000 dilution for Western Blot), β-Actin (4970, 1:50 dilution for ProteinSimple) anti-mouse IgG-HRP, and anti-rabbit IgG-HRP antibodies were purchased Cell Signaling Technology. Anti-GAPDH (600-401-A33, 1:100 dilution for ProteinSimple) was purchased from Rockland Immunochemicals, Inc. Anti-BRD3 (sc-81202, 1:200 dilution for Western Blot) was purchased from Santa Cruz Biotechnology.
(§2) HeLa, MCF7, or HCT116 cells (2.5-3×10^6) were treated for 24 hours with the indicated compounds solubilized in DMSO. The cells were washed in ice-cold PBS and were then lysed in RIPA lysis buffer (150 mM NaCl, 5 mM EDTA, 1% NP-40, 0.5% sodium deoxycholate, 0.1% SDS, 50 mM Tris, pH 8.0) with Roche protease inhibitor complete cocktail and phosphatase inhibitors (10 mM sodium fluoride, 10 mM sodium pyrophosphate, 1 mM sodium orthovanadate and 20 mM β-glycerophosphate). The total protein concentrations were determined by Bradford Protein Assay and 10-20 μg of protein was loaded onto 4-15% Tris-Glycine gradient gels (Biorad). After standard gel electrophoresis, the separated proteins were transferred to PVDF membrane by wet transfer. The immunoblots were then blocked for 1 hour in 5% skim milk in TBST or 5% BSA in TBST, according to manufacturer's instructions, before an overnight incubation at 4° C. with indicated antibodies and membranes. Membranes were then incubated with the appropriate horseradish peroxidase-conjugated secondary antibodies (1:5,000 dilution) for 1 h at room temperature and the bands were visualized using the Clarity Max Western ECL Substrate (Biorad) and the ChemiDoc Imaging System (Biorad). Signal was detected with ECL Western Blotting Substrate (Pierce) and X-ray film processed with a Konica SRX-101 X-ray film processor or captured by Bio-Rad's Chemidoc Imaging system.
HeLa cells (2.5×10^6) were treated for 24 hours with the sample compounds solubilized in DMSO. Compounds were added at 1-10 μM each. Standardized protein samples were electrophoresed and imaged as described in the immunoblotting description above. FIGS. 6-18 depicts the CURE-PRO-mediated BRD4 degradation for BRD monomers (JQ1 derivatives comprising of catechol linkers), and CRBN ligands, 8048 and 8049 (pomalidomide derivatives comprising boronic acid linkers) combined in a 1:1 ratio.
HeLa cells (2.5×10^6) were treated for 24 hours with the compounds solubilized in DMSO. The compounds were added at 10 μM each. Standardized protein samples were electrophoresed and imaged as described in the immunoblotting section above. […]

[2] = target: T1, BRD4; experiment: Summary of E3 ligase directed degradation of BRD4, estimated from Western Blot or WES (Tables 1-6); design: endogenous in cells; host or cells: HeLa, MCF7 or HCT116; details: for Degradation of BRD4, combination with CRBN ligand [drawing 422] / Degradation of BRD4, combination with CRBN ligand [drawing 397] / Degradation of BRD4, combination with CRBN ligand [drawing 421]: Table 1; for Degradation of BRD4, combination with CRBN ligand [drawing 422]: CRBN ligand drawn as drawing 422 (by the text apparently 8066); for Degradation of BRD4, combination with CRBN ligand [drawing 397]: aromatic 1,2-diol- or hindered cis-1,2-diol-containing CRBN ligand drawn as drawing 397 (by the text apparently 8046); for Degradation of BRD4, combination with MDM2 ligand [drawing 431]: Table 2, aromatic 1,2-diol-containing MDM2 ligand drawn as drawing 431 (by the text apparently 8314); for Degradation of BRD4, combination with CRBN ligand [drawing 421]: CRBN ligand drawn as drawing 421 (by the text apparently 8047)
Procedure: as §2
WES Simple analysis was performed on WES system (ProteinSimple-Biotechne) according to the manufacturer's instructions. Total protein concentrations of cell lysates were determined by the Pierce BCA kit (Thermo Fisher). 3 μL of 0.3 μg/uL of the protein lysate was loaded onto a 12- to 230-kDa WES assay plate (ProteinSimple) where 300 nL sample was withdrawn through a capillary, subjected to electrophoretic separation of proteins by size, and followed by the simultaneous, HRP-based detection of proteins using the Anti-Rabbit Detection Module (Proteinsimple: #DM-001). The electropherograms were checked then the automatic peak detection was manually corrected if it was required.
A black check mark indicates efficacy of 30% to 70% or higher protein degradation.

[3] = test system: MV-4-11 cells; experiment: CellTiter-Glo cell viability, MV-4-11 cells
Procedure: as §1
CellTiter-Glo® 2.0 Cell Viability Assay (Promega) was carried out following the manufacturer's recommendations. Cells were seeded at a density of 1000 cells/well in a white 96 well plates (Corning, #3917) in a total volume of 100 μl with respective monomers, combinations of BRD ligands together with E3 ligase ligands or vehicle control treatment. After a 72 h incubation, 100 ul of the CellTiter-Glo® substrate was added per well and luminescence was read on a Spectramax M5 (Molecular Devices). Dose-response curves were generated using Graphpad Prism software.
MV-4-11 cells (5×104) were treated for 24 hours with the sample compounds solubilized in DMSO. The compounds were added at 1 nM-100 μM each. Cellular viability was determined using the CellTiter-Glo® Luminescent Cell Viability Assay (Promega) described above. FIGS. 19-22 depict the CURE-PRO-mediated loss of cellular viability for BRD monomers (JQ1 derivatives comprising of catechol linkers), and CRBN ligand, 8049 (pomalidomide derivatives comprising boronic acid linkers) combined in a 1:1 ratio.
MV-4-11 cells (1×104) were treated for 72 hours with the compounds solubilized in DMSO. Compounds were added at 10 nM-100 μM each. Cellular viability was determined using the CellTiter-Glo® Luminescent Cell Viability Assay (Promega) described above. FIGS. 47-54 depict the CURE-PRO-mediated loss of cellular viability for BRD monomers (JQ1 derivatives comprising of boronic acid linkers), and CRBN ligands, 8046, 8047, and 8066 (pomalidomide derivatives comprising diol linkers) combined in a 1:1 ratio.

[4] = 72 h, 10 nM-100 μM, cotreated 1:1 with each of CRBN ligands 8066, 8046 and 8047, compared to monomers alone

Compound | Degradation of BRD4, combination with CRBN ligand [drawing 422] [2] | Degradation of BRD4, combination with CRBN ligand [drawing 397] [2] | Degradation of BRD4, combination with MDM2 ligand [drawing 431] [2] | toxicity / loss of cellular viability (CellTiter-Glo) [3, 4] | further results
COc1ccc2c(c1)C(c1ccc(Cl)cc1)=N[C@@H](CC(=O)NCCCCCNC(=O)c1cccc(B(O)O)c1)c1nnc(C)n1-2 [BRD-E08] | ✓ (A black check mark indicates efficacy of 30% to 70% or higher protein degradation) | ✓ (A black check mark indicates efficacy of 30% to 70% or higher protein degradation) | ✓ (A black check mark indicates efficacy of 30% to 70% or higher protein degradation) | – | BRD4 degradation ([1]; BRD ligand (monomer) alone): no change in expression is observed; BRD4 degradation ([1]; co-treated 1:1 with CRBN ligand 8046, 10 μM each unless the value states a concentration, listed as BRD-E8): Degradation is observed at 100 nM and 1 μM
CCNC(=O)C[C@@H]1N=C(c2ccc(Cl)cc2)c2cc(OCCNC(=O)c3cccc(B(O)O)c3)ccc2-n2c(C)nnc21 [BRD-E21, (3-((2-(((4S)-6-(4-chlorophenyl)-4-(2-(ethylamino)-2-oxoethyl)-1-methyl-4H-benzo[f][1,2,4]triazolo[4,3-a][1,4]diazepin-8-yl)oxy)ethyl)carbamoyl)phenyl)boronic acid] | – | – | ✓ (A black check mark indicates efficacy of 30% to 70% or higher protein degradation) | – | BRD4 degradation ([1]; BRD ligand (monomer) alone): no change in expression is observed; Degradation of BRD4, combination with CRBN ligand [drawing 421] [2]: ✓ (A black check mark indicates efficacy of 30% to 70% or higher protein degradation)
COc1ccc2c(c1)C(c1ccc(Cl)cc1)=N[C@@H](CC(=O)NCCNC(=O)/C=C/c1ccc(B(O)O)cc1)c1nnc(C)n1-2 [BRD-E29, (4-((E)-3-((2-(2-((4S)-6-(4-chlorophenyl)-8-methoxy-1-methyl-4H-benzo[f][1,2,4]triazolo[4,3-a][1,4]diazepin-4-yl)acetamido)ethyl)amino)-3-oxoprop-1-en-1-yl)phenyl)boronic acid] | ✓ (A black check mark indicates efficacy of 30% to 70% or higher protein degradation) | ✓ (A black check mark indicates efficacy of 30% to 70% or higher protein degradation) | – | reduced viability; also recorded: increased toxicity | Degradation of BRD4, combination with CRBN ligand [drawing 421] [2]: ✓ (A black check mark indicates efficacy of 30% to 70% or higher protein degradation)
COc1ccc2c(c1)C(c1ccc(Cl)cc1)=N[C@@H](CC(=O)NCCOCCOCCNC(=O)c1cccc(B(O)O)c1)c1nnc(C)n1-2 [BRD-E46] | ✓ (A black check mark indicates efficacy of 30% to 70% or higher protein degradation) | ✓ (A black check mark indicates efficacy of 30% to 70% or higher protein degradation) | – | reduced viability; also recorded: increased toxicity | –
CCNC(=O)C[C@@H]1N=C(c2ccc(Cl)cc2)c2cc(Sc3ccc(B(O)O)cc3)ccc2-n2c(C)nnc21 [BRD-E75, (4-(((4S)-6-(4-chlorophenyl)-4-(2-(ethylamino)-2-oxoethyl)-1-methyl-4H-benzo[f][1,2,4]triazolo[4,3-a][1,4]diazepin-8-yl)thio)phenyl)boronic acid] | – | – | ✓ (A black check mark indicates efficacy of 30% to 70% or higher protein degradation) | reduced viability; also recorded: increased toxicity | –
CCNC(=O)C[C@@H]1N=C(c2ccc(Cl)cc2)c2cc(Sc3cccc(B(O)O)c3)ccc2-n2c(C)nnc21 [BRD-E76] | – | ✓ (A black check mark indicates efficacy of 30% to 70% or higher protein degradation) | – | reduced viability; also recorded: increased toxicity | –
CCNC(=O)C[C@@H]1N=C(c2ccc(Cl)cc2)c2cc(OCCCCCCCNC(=O)c3ccc(B(O)O)cc3)ccc2-n2c(C)nnc21 [BRD-E78] | – | – | – | reduced viability; also recorded: increased toxicity | Degradation of BRD4, combination with VHL ligand [drawing 442] ([2]; Table 3, aromatic 1,2-diol-containing VHL ligand drawn as drawing 442 (by the text apparently 8305)): ✓ (A black check mark indicates efficacy of 30% to 70% or higher protein degradation)
COc1ccc2c(c1)C(c1ccc(Cl)cc1)=N[C@@H](CC(=O)NCCc1ccc(O)c(O)c1)c1nnc(C)n1-2 [BRD-N10, (S)-2-(6-(4-chlorophenyl)-8-methoxy-1-methyl-4H-benzo[f][1,2,4]triazolo[4,3-a][1,4]diazepin-4-yl)-N-(3,4-dihydroxyphenethyl)acetamide] | – | – | – | – | Degradation of BRD4, combination with CRBN ligand [drawing 457] ([2]; Table 4, aryl-boronic acid-containing CRBN ligand drawn as drawing 457 (by the text apparently 8048)): ✓ (A black check mark indicates efficacy of 30% to 70% or higher protein degradation); Degradation of BRD4, combination with CRBN ligand [drawing 458] ([2]; Table 4, aryl-boronic acid-containing CRBN ligand drawn as drawing 458 (by the text apparently 8049)): ✓ (A black check mark indicates efficacy of 30% to 70% or higher protein degradation); Degradation of BRD4, combination with MDM2 ligand [drawing 463] ([2]; Table 5, aryl-boronic acid-containing MDM2 ligand drawn as drawing 463 (apparently 8310)): ✓ (A black check mark indicates efficacy of 30% to 70% or higher protein degradation); toxicity / loss of cellular viability (CellTiter-Glo) ([3]; 1 nM-100 μM, cotreated 1:1 with CRBN ligand 8049): a concentration-dependent loss in cellular viability was observed; also recorded: increased toxicity
